Source: patent publication USRE37950E1, “Biogradable in-situ forming implants and methods of producing the same” (priority 1990, dated 2002)

How the values were obtained:
[1] = Release of drug from polymer/NMP formulation injected into dialysis tube, placed in pH 7 Sorenson's buffer receiving fluid at 37° C., UV at 237 nm; type: physicochemical; conditions: for cumulative fraction of drug released: Example 1: 2% by weight SaCl dispersion in DL-PLA oligomer/NMP 68:32
[2] = Concentration of SaCl in crevicular fluid from periodontal pocket of a greyhound dog (Periostrips, Periotron, liquid chromatograph); conditions: other: inserted into the periodontal pocket

For `C[n+]1cc2c3c(ccc2c2ccc4cc5c(cc4c21)OCO5)OCO3` [SaCl, Sanguinarine chloride], the “cumulative fraction of drug released” value ([1]; after 2 days) was about 72%, the “cumulative fraction of drug released” value ([1]; after 5 days) was about 85% and the “cumulative fraction of drug released” value ([1]; after 9 days) was about 90%. The “cumulative fraction of drug released” value ([1]; after 14 days) was about 97%, the “cumulative fraction of drug released” value ([1]; first day) was “Approximately 60%” and the drug released ([1]; Example 3: 1.5% by weight SaCl dispersion in 40% by weight poly(DL-lactide) (MW 2,000) in NMP, after 2 days) was about 40%. The drug released ([1]; Example 3: 1.5% by weight SaCl dispersion in 40% by weight poly(DL-lactide) (MW 2,000) in NMP, after 5 days) was about 45%, the drug released ([1]; Example 3: 1.5% by weight SaCl dispersion in 40% by weight poly(DL-lactide) (MW 2,000) in NMP, after 15 days) was about 50% and the drug released ([1]; Example 3: 1.5% by weight SaCl dispersion in 40% by weight poly(DL-lactide) (MW 2,000) in NMP, after the first day) was “approximately 32%”. For the same compound, the drug released ([1]; Example 6: 2% by weight SaCl dispersion in 70% by weight 50:50 DL-PLG (MW 1500) in NMP, after 2 days) was “approximately 7%”, the drug released ([1]; Example 6: 2% by weight SaCl dispersion in 70% by weight 50:50 DL-PLG (MW 1500) in NMP, after 5 days) was about 10% and the drug released ([1]; Example 6: 2% by weight SaCl dispersion in 70% by weight 50:50 DL-PLG (MW 1500) in NMP, after 7 days) was about 12%. The drug released ([1]; Example 6: 2% by weight SaCl dispersion in 70% by weight 50:50 DL-PLG (MW 1500) in NMP, after 14 days) was about 16%, the concentration at 3 days [2] was 63.2 µg/mL and the concentration at 7 days [2] was 80.2 µg/mL. It also gave a concentration at 10 days [2] of 67.8 µg/mL and a concentration at 14 days [2] of 70.5 µg/mL.
For `CCOC1c2c(ccc3c2OCO3)-c2ccc3cc4c(cc3c2N1C)OCO4` (stereo not shown) [SaEt, Ethoxydihydrosanguinarine], the drug released ([1]; Example 2: SaEt dissolved in DL-PLA oligomer/NMP solution of Example 1, after 2 days) was about 52%, the drug released ([1]; Example 2: SaEt dissolved in DL-PLA oligomer/NMP solution of Example 1, after 5 days) was about 60% and the drug released ([1]; Example 2: SaEt dissolved in DL-PLA oligomer/NMP solution of Example 1, after 9 days) was about 70%. The drug released ([1]; Example 2: SaEt dissolved in DL-PLA oligomer/NMP solution of Example 1, after 14 days) was about 80%, the drug released ([1]; Example 2: SaEt dissolved in DL-PLA oligomer/NMP solution of Example 1, after the first day) was “approximately 45%” and the drug released ([1]; Example 4: 1.5% by weight SaEt solution in 40% by weight DL-PLA (MW 2,000) in NMP, after 2 days) was about 14%. For the same compound, the drug released ([1]; Example 4: 1.5% by weight SaEt solution in 40% by weight DL-PLA (MW 2,000) in NMP, after 5 days) was about 20%, the drug released ([1]; Example 4: 1.5% by weight SaEt solution in 40% by weight DL-PLA (MW 2,000) in NMP, after 9 days) was about 23% and the drug released ([1]; Example 4: 1.5% by weight SaEt solution in 40% by weight DL-PLA (MW 2,000) in NMP, after 14 days) was about 28%. For the same compound, the drug released ([1]; Example 4: 1.5% by weight SaEt solution in 40% by weight DL-PLA (MW 2,000) in NMP, after the first day) was “approximately 8%” and the release rate ([1]; Example 7: 2% by weight SaEt solution in 70% by weight 50:50 DL-PLG in NMP) was “identical to that for SaCl described in Example 6”.
